Results on 18 molecules are retold here after patent US8921372B2, “Inhibitors of hepatitis C virus” (Theravance Biopharma R&D IP, LLC, priority 2010, dated 2014).

Read-outs that look alike come from different tables or passages of the source. A value given as a limit tells only on which side of the number the result lay.

The test system of assay [1] is HCV genotype 1a replicon cell line (APC89; Huh7.5 cell background). Nature of the assay: HCV Genotype 1a Replicon Assay (NS3-specific protease activity readout). It is filed as cell-based. The note with it: Hepatitis C virus. Summed up:
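EC50 values came from a 4-parameter robust fit of fluorescence (ex 340, em 509 nm) produced by NS3-specific protease in lysates, assayed with 15 μM FRET substrate for 20 min at 37° C, after 48 or 72 hours of compound exposure (0.5% DMSO) of Huh7.5-derived APC89 genotype 1a replicon cells.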
A general note: A replicon is a self-replicating genome or part of one, used to study replication in cells.

Assay [2] concerns HCV genotype 1b replicon cell line (APC144; Huh7 cell background). Nature of the assay: HCV Genotype 1b Replicon Assay (Renilla luciferase readout). It counts as cell-based. The note with it: Hepatitis C virus, Huh-7; read-out: Genotype 1b (pEC50 class, HCV genotype 1b replicon assay) (converted). A digest of the protocol:
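Reported as pEC50 derived from a 4-parameter fit of Renilla luciferase activity against concentration. Replicon cells (APC144, Huh7 background) were exposed to compound for 48 h in G418-free medium with final 0.5% DMSO, after seeding at 10,000 cells/well and 4 h adherence.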

Setting [3] is: 72 hour incubation, read-out: Genotype 1a (pEC50 class, HCV genotype 1a replicon assay) (converted).
[4] abbreviates: compounds incubated for 48 hours, read-out: Genotype 1a (pEC50 class, HCV genotype 1a replicon assay), * results (converted).

Turning to `COC(=O)N[C@H](C(=O)N1CCC[C@H]1c1nc(-c2ccc(-c3ccc(NC(=O)c4ccc(N5CCN(C(=O)[C@H]6CC6(C)C)C[C@@H]5C)nc4)cc3)cc2)c[nH]1)C(C)C` [Example 13, [(S)-1-((S)-2-{4-[4′-({6-[(S)-4-((S)-2,2-Dimethyl-cyclopropane-carbonyl)-2-methyl-piperazin-1-yl]-pyridine-3-carbonyl}-amino)-biphenyl-4-yl]-1H-imidazol-2-yl}-pyrrolidine-1-carbonyl)-2-methyl-propyl]-carbamic acid methyl ester], the EC50 in assay [1] (setting [3]) and in assay [2] was less than 0.1 nM throughout.

On to `COCC(=O)N1CCC[C@@]1(C)C(=O)N1CCN(c2ccc(NC(=O)c3ccc(-c4ccc(-c5c[nH]c([C@@H]6CCCN6C(=O)[C@@H](NC(=O)OC)C(C)C)n5)cc4)c(OC(F)(F)F)c3)cn2)[C@H](C)C1` [Example 66], for which the EC50 in assay [1] (setting [3]) and in assay [2] was less than 0.1 nM throughout.

On to `COC(=O)N[C@H](C(=O)N1CCC[C@H]1c1nc(-c2ccc(-c3ccc(NC(=O)c4ccc(N5CCN(C(=O)c6c[nH]cn6)C[C@H]5C)nc4)cc3C(F)(F)F)cc2)c[nH]1)C(C)C` [Example 37], for which the EC50 in assay [1] (setting [3]) was 0.1 to 1 nM; in assay [2] it was less than 0.1 nM.

As to `COC(=O)N[C@H](C(=O)N1CCC[C@H]1c1nc(-c2ccc(-c3ccc(C(=O)Nc4ccc(N5CCN(C(=O)[C@]6(C)CCCN6C(=O)CO)C[C@H]5C)nc4)cc3OC(F)(F)F)cc2)c[nH]1)C(C)C` [Example 68], the EC50 was 0.1 to 1 nM in assay [1] (setting [3]) and less than 0.1 nM in assay [2].

For the molecule `COC(=O)N[C@H](C(=O)N1CCC[C@H]1c1nc(-c2ccc(-c3ccc(C(=O)Nc4ccc(N5CCN(C(=O)C6CC6)CC5)cc4)cc3)cc2)c[nH]1)C(C)C` [Example 7, {(S)-1-[(S)-2-(4-{4′-[4-(4-cyclopropanecarbonyl-piperazin-1-yl)-phenylcarbamoyl]-biphenyl-4-yl}-1H-imidazol-2-yl)-pyrrolidine-1-carbonyl]-2-methyl-propyl}-carbamic acid methyl ester], the figures for the EC50 in assay [1] (setting [4]) and in assay [2] were 1 to 10 nM and less than 0.1 nM, respectively.

For `COC(=O)N[C@H](C(=O)N1CCC[C@H]1c1nc(-c2ccc(-c3ccc(NC(=O)c4ccc(N5CCN(C(=O)C6CC6)C[C@H]5C)nc4)cc3F)cc2)c[nH]1)C(C)C` [Example 46], the figures for the EC50 in assay [1] (setting [3]) and in assay [2] were 0.1 to 1 nM and less than 0.1 nM, respectively.

Consider `CNC(=O)N1CCN(c2ccc(C(=O)Nc3cc(OC(F)(F)F)c(-c4ccc(-c5c[nH]c([C@@H]6CCCN6C(=O)[C@@H](NC(=O)OC)C(C)C)n5)cc4)cc3F)cn2)[C@H](C)C1` [Example 53, ((S)-1-{(S)-2-[4-(5′-Fluoro-4′-{[6-OR)-2-methyl-4-methylcarbamoyl-piperazin-1-yl)-pyridine-3-carbonyl]-amino}-2′-trifluoromethoxy-biphenyl-4-yl)-1H-imidazol-2-yl]-pyrrolidine-1-carbonyl}-2-methyl-propyl)-carbamic acid methyl ester], for which the EC50 in assay [1] (setting [3]) and in assay [2] was less than 0.1 nM in each case.

Consider `COC(=O)N[C@H](C(=O)N1CCC[C@H]1c1nc(-c2ccc(-c3cc(F)c(NC(=O)c4ccc(N5CCN(C(=O)c6cc[nH]n6)C[C@H]5C)nc4)cc3OC(F)(F)F)cc2)c[nH]1)C(C)C` [Example 27-34], for which the EC50 in assay [1] (setting [3]) and in assay [2] was less than 0.1 nM in each case.

Regarding `COC(=O)N[C@H](C(=O)N1CCC[C@H]1c1nc(-c2ccc(-c3ccc(NC(=O)c4ccc(N5CCN(C(=O)C6CC6)CC5)cc4)cc3F)cc2)c[nH]1)C(C)C` [Example 8, {(S)-1-[(S)-2-(4-{4′-[4-(4-cycloproanecarbonyl-piperazin-1-yl)-benzoylamino]-2′-fluoro-biphenyl-4-yl}-1H-imidazol-2-yl)-pyrrolidine-1-carbonyl]-2-methyl-propyl}-carbamic acid methyl ester], the EC50 in assay [1] (setting [3]) is 1 to 10 nM; in assay [2] it was less than 0.1 nM.

Regarding `COC(=O)N[C@H](C(=O)N1CCC[C@H]1c1nc(-c2ccc(-c3cc(F)c(NC(=O)c4ccc(N5C[C@H](C)N(C(=O)c6cc[nH]n6)C[C@H]5C)nc4)cc3OC(F)(F)F)cc2)c[nH]1)C(C)C` [Example 60], the EC50 in assay [1] (setting [3]) and in assay [2] was less than 0.1 nM throughout.

In the case of `CCN(CC)[C@@H](C(=O)N1CCC[C@H]1c1nc(-c2ccc(-c3ccc(NC(=O)c4ccc(N5CCN(C(=O)C6CC6)CC5)cc4)cc3)cc2)c[nH]1)c1ccccc1` [Example 9, 4-(4-Cyclopropanecarbonyl-piperazin-1-yl)-N-(4′-{2-[(S)-1-((R)-2-diethylamino-2-phenyl-acetyl)-pyrrolidin-2-yl]-1H-imidazol-4-yl}-biphenyl-4-yl)-benzamide], the EC50 in assay [1] (setting [4]) was 0.1 to 1 nM; in assay [2], less than 0.1 nM.

For `COC(=O)N[C@H](C(=O)N1CCC[C@H]1c1nc(-c2ccc(-c3cc(Cl)c(NC(=O)c4ccc(N5CCN(C(=O)[C@]6(C)CCCN6C(=O)CN(C)C)C[C@H]5C)nc4)cc3OC(F)(F)F)cc2)c[nH]1)C(C)C` [Example 27-72], the EC50 in assay [1] (setting [3]) and in assay [2] was less than 0.1 nM each time.

On to `COC(=O)N[C@H](C(=O)N1CCC[C@H]1c1nc(-c2ccc(-c3cc(F)c(NC(=O)c4ccc(N5CCN(C(=O)[C@]6(C)CCCN6C(=O)NC(C)C)C[C@H]5C)nc4)cc3OC(F)(F)F)cc2)c[nH]1)C(C)C` [Example 27-43], for which the EC50 in assay [1] (setting [3]) and in assay [2] was less than 0.1 nM in each case.

With `COC(=O)N[C@H](C(=O)N1CCC[C@H]1c1nc(-c2ccc(-c3ccc(NC(=O)c4ccc(N5C[C@H](C)N(C(=O)[C@H]6CC6(C)C)C[C@H]5C)nc4)cc3C)c(C)c2)c[nH]1)C(C)C` [Example 39, [(S)-1-((S)-2-{4-[4′-({6-[(2R,5S)-4-((S)-2,2-Dimethyl-cyclopropanecarbonyl)-2,5-dimethyl-piperazin-1-yl]-pyridine-3-carbonyl}-amino)-2,2′-dimethyl-biphenyl-4-yl]-1H-imidazol-2-yl}-pyrrolidine-1-carbonyl)-2-methyl-propyl]-carbamic acid methyl ester], the EC50 in assay [1] (setting [3]) and in assay [2] was less than 0.1 nM in each case.

For the molecule `COC(=O)N[C@H](C(=O)N1CCC[C@H]1c1nc(-c2ccc(-c3ccc(NC(=O)c4ccc(N5CCN(C(=O)c6c[nH]cn6)C[C@H]5C)nc4)cc3OC(F)(F)F)cc2)c[nH]1)C(C)C` [Example 27], the EC50 in assay [1] (setting [3]) and in assay [2] was less than 0.1 nM throughout.

Turning to `COC(=O)N[C@H](C(=O)N1CCC[C@H]1c1nc(-c2ccc(-c3ccc(C(=O)Nc4ccc(N5CCN(C(=O)OC(C)(C)C)CC5)cc4)cc3)cc2)c[nH]1)C(C)C` [Example 6, 4-{4-[(4′-{2-[(S)-1-((S)-2-Methoxycarbonylamino-3-methyl-butyryl)-pyrrolidin-2-yl]-1H-imidazol-4-yl}-biphenyl-4-carbonyl)-amino]-phenyl}-piperazine-1-carboxylic acid tert-butyl ester], the EC50 was 10 to 100 nM in assay [1] (setting [4]) and less than 0.1 nM in assay [2].

`COC(=O)N[C@H](C(=O)N1CCC[C@H]1c1nc(-c2ccc(-c3cc(Cl)c(NC(=O)c4ccc(N5CCN(C(=O)[C@]6(C)CCCN6C(=O)[C@@H](NC(=O)OC)C(C)C)C[C@H]5C)nc4)cc3C(F)(F)F)cc2)c[nH]1)C(C)C` [Example 62]: the EC50 in assay [1] (setting [3]) and in assay [2] was less than 0.1 nM throughout.

Turning to `CNC(=O)N1CCC[C@@]1(C)C(=O)N1CCN(c2ccc(C(=O)Nc3cc(OC(F)(F)F)c(-c4ccc(-c5c[nH]c([C@@H]6CCCN6C(=O)[C@@H](NC(=O)OC)C(C)C)n5)cc4)cc3Cl)cn2)[C@H](C)C1` [Example 27-73], the EC50 in assay [1] (setting [3]) and in assay [2] was less than 0.1 nM throughout.
